Data set [1] is described as follows: Transdermal delivery of conjugate to microporated rat skin, conjugate level in plasma by sandwich ELISA. It is filed as in vivo, Male CD Hairless rats. The settings on record: rats; for Intact conjugate present in the blood stream as a function of time: after application to microporated skin, blood draws over 2-3 hour period; for Transdermal delivery of the peptide conjugate: applied to microporated skin relative to intact skin, occluded. How it is done:
The γV5 peptide RLVLAS (SEQ ID NO: 43) with an […] (Ac) end cap was attached by a GG linker to a TAT carrier peptide (SEQ ID NO: 46) and then the C-terminus was amidated (NH2) to form a conjugate identified as SEQ ID NO: 49. Transdermal delivery of this conjugate was performed as described in Example 1 except that a 1 cm^2 solid polymer microneedle array was used to microporate the skin and an aqueous reservoir patch was used to contact a 10% aqueous formulation of the conjugate with the microporated skin. Results are shown in FIG. 3, where the amount of conjugate in the blood, in ng/mL, is shown as a function of time.

For data set [2] the following is noted: microporated vs intact rat skin; 30 μm planar skin sections (FIG. 1A).
Source text: Male CD Hairless rats were weighed (range: 300-500 grams) and anesthetized by inhaled isoflurane. The rats remained under anesthesia for the duration of the experiment and were sacrificed after the last blood draw. Rats were cannulated at a femoral or jugular vein for blood draws. A derma roller with 1.0 or 1.5 mm microneedles (Moohan Dr. Roller) was rolled across a 1 cm^2 area of skin on the dorsal trunk or waist by passing the roller over the skin 5 times with moderate pressure. Fifty μL of the cPKC inhibitor peptide [sequence] (SEQ ID NO:13) attached to a TAT carrier peptide to form the conjugate peptide identified as SEQ ID NO: 14 at 1% to 10% (10 to 100 mg/mL) was applied to the microporated skin and occluded with a 1 cm^2 piece of saran wrap. […] As a control, rats with intact skin (i.e., rats not subjected to the microneedle array) were also treated with the same peptide conjugate.
To analyze levels of the εPKC inhibitor peptide [sequence] (SEQ ID NO:13) in plasma, both ELISA on planar skin sections and a sandwich ELISA that uses antibodies that recognize different portions of the conjugate (the εPKC inhibitor peptide and the TAT carrier peptide) were employed.

Take `CC[C@H](C)[C@H](NC(=O)[C@@H]1CCCN1C(=O)[C@H](C)NC(=O)[C@H](CC(=O)O)NC(=O)[C@H](Cc1c[nH]cn1)NC(C)=O)C(=O)NCC(=O)N[C@@H](Cc1ccc(O)cc1)C(=O)N[C@@H](CC(=O)O)C(=O)NCCCCCC(=O)N[C@@H](Cc1ccc(O)cc1)C(=O)NCC(=O)N[C@@H](CCCNC(=N)N)C(=O)N[C@@H](CCCCN)C(=O)N[C@@H](CCCCN)C(=O)N[C@@H](CCCNC(=N)N)C(=O)N[C@@H](CCCNC(=N)N)C(=O)N[C@@H](CCC(N)=O)C(=O)N[C@@H](CCCNC(=N)N)C(=O)N[C@@H](CCCNC(=N)N)C(=O)N[C@@H](CCCNC(=N)N)C(N)=O` [SEQ ID NO: 19, AC-HDAPIGYD-AHX-YGRKKRRQRRR-NH2]: in data set [1], the “Intact conjugate present in the blood stream as a function of time” value is given as “in an increasing amount with time” and the “Transdermal delivery of the peptide conjugate” value is on record as “enhanced”.
Take “Ac-EAVSLKPTGGYGRKKRRQRRR-NH2 [SEQ ID NO: 14, Ac-EAVSLKPT GG YGRKKRRQRRR-NH2]”: the “Penetration of the peptide conjugate through the stratum corneum and into the underlying skin” value in data set [2] is given as “increased penetration”. In data set [1], the “Intact conjugate present in the blood stream as a function of time” value is given as “in an increasing amount with time” and the “Transdermal delivery of the peptide conjugate” value is recorded as “significantly enhanced”.

The record behind these values is patent US20100311671A1, “TRANSDERMAL DELIVERY OF PKC MODULATORY PEPTIDES THROUGH MI[…]” (Kai Pharmaceuticals, priority 2009, published 2010).
